According to ChEMBL document CHEMBL1143364, “Preliminary evaluation of pharmacological properties of some xanthone derivatives” (Bioorg Med Chem, 2009):
Active and inactive are the calls of the source. The rule behind the calls is not given here.

What was measured:
Mus musculus [1] = assay: Anticonvulsant activity in CF1 mouse assessed as inhibition of maximal electroshock-induced seizures at 300 mg/kg, ip after 0.5 hrs; type: functional, organism-based; set-up: dose 300 mg/kg
[2] = molecular target: T1, Adrenergic receptor alpha-1 (Rattus norvegicus, UniProt P15823+P23944+P43140); assay: Displacement of [3H]prazosin from alpha1 adrenergic receptor in rat cerebral cortex by liquid scintillation counting; type: tissue-based
T1 sequence (P15823 whole entry): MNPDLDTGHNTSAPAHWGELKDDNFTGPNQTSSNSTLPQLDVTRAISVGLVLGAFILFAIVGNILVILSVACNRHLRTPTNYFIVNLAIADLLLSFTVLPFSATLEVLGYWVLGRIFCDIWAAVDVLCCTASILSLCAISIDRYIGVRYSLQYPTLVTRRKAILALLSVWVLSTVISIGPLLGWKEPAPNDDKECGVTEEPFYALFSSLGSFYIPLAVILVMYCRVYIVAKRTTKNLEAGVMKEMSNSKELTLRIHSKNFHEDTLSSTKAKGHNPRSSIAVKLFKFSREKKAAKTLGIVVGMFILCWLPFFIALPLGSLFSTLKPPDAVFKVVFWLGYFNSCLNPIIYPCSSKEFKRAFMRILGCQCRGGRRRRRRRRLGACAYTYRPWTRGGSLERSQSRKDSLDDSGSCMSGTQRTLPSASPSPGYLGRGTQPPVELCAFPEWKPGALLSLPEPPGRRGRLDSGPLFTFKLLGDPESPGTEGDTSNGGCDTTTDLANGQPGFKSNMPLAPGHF
T1 sequence (P23944 whole entry): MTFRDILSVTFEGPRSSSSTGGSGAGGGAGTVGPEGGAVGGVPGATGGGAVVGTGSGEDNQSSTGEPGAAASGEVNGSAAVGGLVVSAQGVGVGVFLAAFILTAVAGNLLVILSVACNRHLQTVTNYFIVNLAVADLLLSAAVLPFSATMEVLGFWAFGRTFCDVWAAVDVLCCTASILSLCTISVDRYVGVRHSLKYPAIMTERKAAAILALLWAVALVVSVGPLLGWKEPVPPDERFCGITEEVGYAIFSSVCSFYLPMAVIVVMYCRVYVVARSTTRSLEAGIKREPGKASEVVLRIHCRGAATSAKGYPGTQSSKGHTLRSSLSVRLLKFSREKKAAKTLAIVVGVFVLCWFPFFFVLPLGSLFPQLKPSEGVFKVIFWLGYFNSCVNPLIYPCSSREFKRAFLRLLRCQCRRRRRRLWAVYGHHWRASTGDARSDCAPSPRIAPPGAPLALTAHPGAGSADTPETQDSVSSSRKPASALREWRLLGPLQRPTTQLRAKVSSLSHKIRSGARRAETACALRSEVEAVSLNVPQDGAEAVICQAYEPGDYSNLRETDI
T1 sequence (P43140 whole entry): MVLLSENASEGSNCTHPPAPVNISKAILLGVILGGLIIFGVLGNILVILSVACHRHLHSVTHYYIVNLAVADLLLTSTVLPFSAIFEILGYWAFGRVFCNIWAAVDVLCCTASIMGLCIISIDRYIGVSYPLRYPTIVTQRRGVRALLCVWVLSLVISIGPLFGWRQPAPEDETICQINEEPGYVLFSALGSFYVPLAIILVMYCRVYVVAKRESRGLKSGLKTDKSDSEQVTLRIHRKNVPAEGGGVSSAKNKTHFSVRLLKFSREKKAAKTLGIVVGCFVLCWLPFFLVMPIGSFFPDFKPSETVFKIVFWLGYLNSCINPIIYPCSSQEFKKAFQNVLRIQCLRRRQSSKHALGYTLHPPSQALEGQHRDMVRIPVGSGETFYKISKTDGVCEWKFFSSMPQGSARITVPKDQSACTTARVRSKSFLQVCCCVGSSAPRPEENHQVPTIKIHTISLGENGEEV

Mus musculus [3] = assay: Anticonvulsant activity in CF1 mouse assessed as inhibition of maximal electroshock-induced seizures at 100 mg/kg, ip after 0.5 hrs; type: functional, organism-based; set-up: dose 100 mg/kg
[4] = molecular target: Beta-1 adrenergic receptor (Rattus norvegicus, UniProt P18090); assay: biochemical
Sequence of Beta-1 adrenergic receptor (P18090 whole entry): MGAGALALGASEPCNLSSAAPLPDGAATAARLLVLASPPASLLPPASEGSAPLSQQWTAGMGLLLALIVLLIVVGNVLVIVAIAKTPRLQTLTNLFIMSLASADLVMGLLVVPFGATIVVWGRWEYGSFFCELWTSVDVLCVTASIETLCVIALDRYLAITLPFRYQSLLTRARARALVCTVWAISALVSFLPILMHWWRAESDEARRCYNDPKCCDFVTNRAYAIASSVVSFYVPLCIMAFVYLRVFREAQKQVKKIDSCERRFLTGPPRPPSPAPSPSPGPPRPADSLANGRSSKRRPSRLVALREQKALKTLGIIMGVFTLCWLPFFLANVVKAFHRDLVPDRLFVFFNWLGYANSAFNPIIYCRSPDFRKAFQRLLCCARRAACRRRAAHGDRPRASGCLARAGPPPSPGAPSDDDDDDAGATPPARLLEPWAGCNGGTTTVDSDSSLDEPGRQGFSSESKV
Description: Displacement of [3H]CGP12177 from beta-1 adrenergic receptor in rat cerebral cortex by liquid scintillation counting

Rattus norvegicus [5] = assay: Antiarrhythmic activity in anaesthetized iv dosed Wistar rat assessed as decrease in adrenaline-induced cardiac rhythm disturbance administered 15 mins before adrenaline challenge; type: functional; conditions: Heart
Rattus norvegicus [6] = assay: Cardiotoxicity in Wistar rat assessed as prolongation of PQ interval at 10 mg/kg, iv by ECG; type: toxicity, organism-based; set-up: dose 10 mg/kg, route intravenous; conditions: in vivo
Mus musculus [7] = assay: Neurotoxicity in CF1 mouse at 100 mg/kg, ip after 4 hrs by rotarod test; type: toxicity, organism-based; set-up: dose 100 mg/kg, route intraperitoneal; conditions: in vivo
Mus musculus [8] = assay: Anticonvulsant activity in CF1 mouse assessed as inhibition of subcutaneous pentylenetetrazole-induced seizures; type: functional, organism-based
Mus musculus [9] = assay: Neurotoxicity in CF1 mouse at 30 mg/kg, ip after 0.5 hrs by rotarod test; type: toxicity, organism-based; set-up: dose 30 mg/kg, route intraperitoneal; conditions: in vivo
Mus musculus [10] = assay: Anticonvulsant activity in CF1 mouse assessed as inhibition of maximal electroshock-induced seizures at 30 mg/kg, ip after 0.5 hrs; type: functional, organism-based; set-up: dose 30 mg/kg
Mus musculus [11] = assay: Anticonvulsant activity in CF1 mouse assessed as inhibition of maximal electroshock-induced seizures at 300 mg/kg, ip after 4 hrs; type: functional, organism-based; set-up: dose 300 mg/kg
Mus musculus [12] = assay: Anticonvulsant activity in CF1 mouse assessed as inhibition of maximal electroshock-induced seizures at 30 mg/kg, ip after 4 hrs; type: functional, organism-based; set-up: dose 30 mg/kg
Mus musculus [13] = assay: Neurotoxicity in CF1 mouse at 30 mg/kg, ip after 4 hrs by rotarod test; type: toxicity, organism-based; set-up: dose 30 mg/kg, route intraperitoneal; conditions: in vivo
Mus musculus [14] = assay: Anticonvulsant activity in CF1 mouse assessed as inhibition of maximal electroshock-induced seizures at 100 mg/kg, ip after 4 hrs; type: functional, organism-based; set-up: dose 100 mg/kg
Mus musculus [15] = assay: Neurotoxicity in CF1 mouse at 300 mg/kg, ip after 0.5 hrs by rotarod test; type: toxicity, organism-based; set-up: dose 300 mg/kg, route intraperitoneal; conditions: in vivo
Mus musculus [16] = assay: Neurotoxicity in CF1 mouse at 100 mg/kg, ip after 0.5 hrs by rotarod test; type: toxicity, organism-based; set-up: dose 100 mg/kg, route intraperitoneal; conditions: in vivo
Rattus norvegicus [17] = assay: Cardiotoxicity in Wistar rat assessed as decrease in cardiac beats per minute at 10 mg/kg, iv by ECG; type: toxicity, organism-based, Heart; set-up: dose 10 mg/kg, route intravenous; scale not given: the % may be the effect or the level left; conditions: in vivo
Rattus norvegicus [18] = assay: Hypotensive activity in normotensive Wistar rat assessed as reduction in blood pressure at 10 mg/kg, iv after 60 mins; type: functional, organism-based; set-up: dose 10 mg/kg
Mus musculus [19] = assay: Neurotoxicity in CF1 mouse at 300 mg/kg, ip after 4 hrs by rotarod test; type: toxicity, organism-based; set-up: dose 300 mg/kg, route intraperitoneal; conditions: in vivo
Rattus norvegicus [20] = assay: Hypotensive activity in normotensive Wistar rat assessed as reduction in diastolic blood pressure at 10 mg/kg, iv; type: functional, Artery; set-up: scale not given: the % may be the effect or the level left
Rattus norvegicus [21] = assay: Hypotensive activity in normotensive Wistar rat assessed as reduction in systolic blood pressure at 10 mg/kg, iv; type: functional; set-up: scale not given: the % may be the effect or the level left
Rattus norvegicus [22] = assay: Hypotensive activity in normotensive Wistar rat assessed as reduction in diastolic blood pressure at 5 mg/kg, iv; type: functional, Artery; set-up: scale not given: the % may be the effect or the level left
Rattus norvegicus [23] = assay: Cardiotoxicity in Wistar rat assessed as prolongation of QT interval at 10 mg/kg, iv by ECG; type: toxicity, organism-based; set-up: dose 10 mg/kg, route intravenous; conditions: in vivo
Rattus norvegicus [24] = assay: Hypotensive activity in normotensive Wistar rat assessed as reduction in systolic blood pressure at 5 mg/kg, iv; type: functional, Artery; set-up: scale not given: the % may be the effect or the level left
Rattus norvegicus [25] = assay: Cardiotoxicity in Wistar rat assessed as decrease in cardiac beats per minute at 5 mg/kg, iv by ECG; type: toxicity, organism-based, Heart; set-up: dose 5 mg/kg, route intravenous; scale not given: the % may be the effect or the level left; conditions: in vivo
Rattus norvegicus [26] = assay: Hypotensive activity in normotensive Wistar rat assessed as reduction in diastolic blood pressure at 2.5 mg/kg, iv; type: functional, organism-based; set-up: dose 2.5 mg/kg; conditions: Artery

Row | SMILES | Ki [2] | Ki [4] | Activity (Mus musculus [1]) | Activity (Mus musculus [3]) | Activity (Rattus norvegicus [5]) | Activity (Mus musculus [7]) | Activity (Mus musculus [8]) | Activity (Mus musculus [9]) | Activity (Mus musculus [10]) | Activity (Mus musculus [11]) | Activity (Mus musculus [12]) | Activity (Mus musculus [13]) | Activity (Mus musculus [14]) | Activity (Mus musculus [15]) | Activity (Mus musculus [16]) | Activity (Rattus norvegicus [17]) | Activity (Mus musculus [19]) | also measured
1 | CC(C)(CO)NCCCOc1cccc2c(=O)c3ccccc3oc12.Cl | 8.7 µM | 2.6 µM | inactive | inactive | Active | Non-toxic | inactive | Non-toxic | inactive | inactive | inactive | Non-toxic | inactive | 25% | Non-toxic | 15% | Non-toxic | Activity (Rattus norvegicus [6]): Toxic; Activity (Rattus norvegicus [18]): Active
2 | C=CCNCC(O)COc1ccc2oc3ccccc3c(=O)c2c1.Cl (stereo not given) | 4.9 µM | 30.9 µM | Active |  | Active | Non-toxic | inactive | Non-toxic | inactive | Active | inactive | Non-toxic | inactive | Toxic | Non-toxic |  |  | Activity (Rattus norvegicus [20]): 11%; Activity (Rattus norvegicus [21]): 10%
3 | CC(C)NCC(O)COc1cccc2ccccc12 (stereo not given) [PROPRANOLOL] |  |  |  |  |  |  |  |  |  |  |  |  |  |  |  |  |  | ED50 (Rattus norvegicus [5]): 1.05 mg/kg

The next lines start with results.

Row | Ki [2] | Ki [4] | SMILES | Activity (Mus musculus [1]) | Activity (Mus musculus [3]) | Activity (Rattus norvegicus [5]) | Activity (Mus musculus [7]) | Activity (Mus musculus [8]) | Activity (Mus musculus [9]) | Activity (Mus musculus [10]) | Activity (Mus musculus [11]) | Activity (Mus musculus [12]) | Activity (Mus musculus [13]) | Activity (Mus musculus [14]) | Activity (Mus musculus [15]) | Activity (Mus musculus [16]) | Activity (Rattus norvegicus [17]) | Activity (Mus musculus [19]) | also measured
4 | 7.3 µM | 0.084 µM | C=CCNCC(O)COc1cccc2c(=O)c3ccccc3oc12.Cl (stereo not given) | inactive | inactive | Active | Non-toxic | inactive |  | inactive | inactive | inactive | Non-toxic | inactive | 50% |  | 24% | Non-toxic | Activity (Rattus norvegicus [22]): 11%; Activity (Rattus norvegicus [23]): 17%; Activity (Rattus norvegicus [24]): 9%
5 | 20.6 µM | 0.047 µM | CC(CO)(CO)NCC(O)COc1cccc2c(=O)c3ccc(Cl)cc3oc12.Cl (stereo not given) | inactive | inactive | Active | Non-toxic | inactive | Non-toxic | inactive | inactive | inactive |  | inactive | Non-toxic | Non-toxic |  |  | Activity (Rattus norvegicus [25]): 21%; Activity (Rattus norvegicus [26]): inactive
